Key:
[1] = molecular target: Muscarinic acetylcholine receptor; assay: Compound was assessed for the binding affinity against muscarinic receptor subtypes in rat brain using [3H]OXO-M radioligand as a muscarinic receptor agonist at a concentration of 0.2 nM; type: tissue-based
[2] = molecular target: T1, Muscarinic acetylcholine receptor M2 (Rattus norvegicus, UniProt P10980); assay: Muscarinic receptor M2 in rat heart using [3H]QNB (quinuclidinyl benzylate) radioligand as a M2 non-selective muscarinic receptor antagonist at a concentration of 0.12 nM
T1 sequence (P10980 whole entry): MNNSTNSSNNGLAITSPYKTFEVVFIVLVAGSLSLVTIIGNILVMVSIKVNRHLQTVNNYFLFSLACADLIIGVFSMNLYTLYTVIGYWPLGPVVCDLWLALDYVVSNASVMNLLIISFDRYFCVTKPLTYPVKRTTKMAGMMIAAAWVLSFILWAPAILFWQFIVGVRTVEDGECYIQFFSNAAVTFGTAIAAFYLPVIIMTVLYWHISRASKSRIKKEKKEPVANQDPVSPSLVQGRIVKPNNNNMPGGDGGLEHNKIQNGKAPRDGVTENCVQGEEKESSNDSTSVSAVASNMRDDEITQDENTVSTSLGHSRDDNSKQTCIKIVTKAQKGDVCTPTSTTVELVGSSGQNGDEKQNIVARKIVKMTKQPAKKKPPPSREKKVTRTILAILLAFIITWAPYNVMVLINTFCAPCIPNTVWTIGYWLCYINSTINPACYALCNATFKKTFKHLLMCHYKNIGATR

[3] = molecular target: T2, Muscarinic acetylcholine receptor M1 (Rattus norvegicus, UniProt P08482); assay: Binding affinity against Muscarinic receptor M1 in rat brain using [3H]-PZ (pirenzepine) radioligand at a concentration of 1 nM; type: tissue-based
T2 sequence (P08482 whole entry): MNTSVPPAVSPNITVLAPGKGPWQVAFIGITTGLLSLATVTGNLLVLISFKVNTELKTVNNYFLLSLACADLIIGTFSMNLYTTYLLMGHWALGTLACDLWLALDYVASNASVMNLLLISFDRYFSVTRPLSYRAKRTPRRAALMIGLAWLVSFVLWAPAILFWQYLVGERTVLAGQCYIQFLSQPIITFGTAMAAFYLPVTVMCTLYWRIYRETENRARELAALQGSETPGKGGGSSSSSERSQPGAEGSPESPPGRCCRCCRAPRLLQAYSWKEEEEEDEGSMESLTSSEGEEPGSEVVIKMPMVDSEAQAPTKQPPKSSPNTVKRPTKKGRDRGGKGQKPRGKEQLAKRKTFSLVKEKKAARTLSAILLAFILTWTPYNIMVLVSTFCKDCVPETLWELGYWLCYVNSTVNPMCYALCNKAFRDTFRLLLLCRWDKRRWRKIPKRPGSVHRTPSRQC

[4] = molecular target: T1, Muscarinic acetylcholine receptor M2; assay: Binding affinity against Muscarinic receptor M2 in rat brain using [3H]QNB (quinuclidinyl benzylate) radioligand at a concentration of 0.12 nM; type: tissue-based
[5] = Selectivity for was determined by the displacement of [3H]PZ in rat brain preparations; expressed as ratio of M1/M2; type: tissue-based

| SMILES | IC50 [1] [nM] | IC50 [2] [nM] | IC50 [3] [nM] | IC50 [4] [nM] | Selectivity ratio [5] |
| --- | --- | --- | --- | --- | --- |
| C(#CCN1CCCC1)COC1=NOCC1 | 4 | 233 | 412 | 8600 |  |
| CN(C)CC#CCN1OCCC1=O | 23 | 1380 | 7100 | 101000 | 41.2 |
| O=C1CCCN1CC#CCN1CCCC1 [OXOTREMORINE] | 2 | 84 | 100 | 2000 |  |
| O=C1CCON1CC#CCN1CCCC1 | 1.6 | 215 | 78 | 2800 |  |
| C[N+](C)(C)CC#CCN1OCCC1=O | 0.8 | 74 | 1300 | 17400 | 140 |

Reference: ChEMBL document CHEMBL1129906, “Synthesis and binding affinity of new muscarinic ligands structurally related to oxotremorine” (Bioorg Med Chem Lett, 1997)
